Measured values published in patent publication US12258578B2, “Agent for accelerating maturation or aging of cells” (JUNTENDO EDUCATIONAL FOUNDATION, priority 2019, dated 2025).
Entries after “also recorded” stand apart in the source; their conditions may differ.

What was measured:
[1] = tested on: nerve cells induced from human iPS cells; experiment: GFP-Synapsin fluorescent reporter screening for nerve cell maturation; type: cell-based; conditions: for acceleration of cell maturation: human iPS cell-derived neurons, same manner as in Example 1
Experimental: (1) A nerve cell cluster (Neurosphere) containing neural stem cells was prepared in suspension culture from iPS cells, passaged six times, and differentiated into nerves. A mature nerve cell-specific fluorescent reporter (GFP-Synapsin) was introduced using a lentiviral vector. Thereafter, the culture was switched to adherent culture, and 10 μM each of the low-molecular compound library (Sigma Aldrich) was added to the culture medium for neural differentiation, and the culture was performed for 17 days. The fluorescence intensity of GFP-Synapsin was quantified using an imaging cytometer (In cell analyzer). Using an astrocyte conditioned medium (ACM), which accelerates neural differentiation, as a control, compounds showing a fluorescence intensity closer to the control were selected (FIG. 1 and FIG. 2).

SHSY5 cells = experiment: Cell aging of SHSY5 cells (nuclear membrane staining, qPCR); type: cell-based, human
Source text: A decrease in Lamin B1 (LMNB1) mRNA (FIG. 12B), an increase in aging marker p16 mRNA (FIG. 12C) and a […] in aging marker p21 mRNA were detected by qPCR (mean±SEM, n=4, *p<0.01.) (FIG. 12D). That is, also in SHSY5 (immortalized cell line of human nervous system), a breakdown of the nuclear membrane was observed by the addition of KU60019.

[2] = tested on: human iPS cells differentiated into dopaminergic nerve cells; experiment: Quantification of Nestin-positive cells during dopaminergic neural differentiation; type: cell-based; conditions: 1, 5 or 10 μM, culture for 10 days
Experimental: (§1) (1) When neural differentiation of human iPS cells into dopaminergic nerve cells was performed, KU-60019 was added to the neural differentiation medium at 1, 5 or 10 μM, followed by culture for 10 days, and the cells expressing Nestin, which is a marker of undifferentiated nervous system, were quantified to evaluate the differentiation efficiency (the culture conditions are shown in FIG. 3).

[3] = tested on: PARK4-iPS cell-derived DAN; experiment: Cell loss of PARK4-iPS cell-derived DAN (TH antibody); type: cell-based, human
Source text: Since KU-60019 accelerates neural differentiation from human iPS cells and cell aging, it was verified whether the culture period required for phenotypic detection in DAN differentiated from Parkinson's disease-iPS cells could be shortened by the addition of KU-60019 to a conventional culture method. The culture periods required until phenotypic detection in the case of addition of KU-60019 and in the case of non-addition of KU-60019 were compared using iPS cells established from a patient with typical PARK 4 (α-synuclein duplication), which develops at a relatively old age (50s and beyond) among hereditary Parkinson's diseases. (1) After performing the differentiation induction of PARK4-iPS cell-derived DAN using the same method as in Example 2(2), the cell loss of DAN was analyzed on days 7 and 10 using a TH antibody.

DAN from human iPS cells [4] = experiment: γH2AX (Ser139) immunostaining of iPS cell-derived DAN; type: cell-based; conditions: day 7
Experimental: (2) The differentiation induction of DAN from human iPS cells was performed using the same method as in Example 2(2), and immunostaining using a γH2AX (Ser139) antibody was performed on day 7 (FIGD. 8-D-F).

DAN from human iPS cells [5] = experiment: Lamin B1 immunostaining of iPS cell-derived DAN; type: cell-based; conditions: day 7
Experimental: (1) The differentiation induction of DAN from human iPS cells was performed using the same method as in Example 2(2), and immunostaining using a Lamin B1 antibody was performed on day 7 (FIGS. 8-A-C).

[6] = tested on: human fibroblasts derived from a young donor; experiment: Aging-specific marker SA-Gal in human fibroblasts; type: cell-based
[7] = tested on: human fibroblasts derived from a young donor; experiment: Aging-specific nuclear membrane abnormalities in human fibroblasts (Lamin B1, Lamin A/C); type: cell-based
Source text: The proportion of cells showing normal nuclear membrane structure in fibroblasts derived from a young donor was reduced by the action of KU60019 (mean±SEM, n=6, *p<0.01.) (FIG. 10B). In fibroblasts collected from an old donor, when compared with human fibroblasts collected from a young donor, a decrease in Lamin B1, which is a nuclear membrane marker, as an aging-specific nuclear membrane abnormality is observed.

[8] = tested on: dopaminergic neurons (DAN) differentiated from human iPS cells; experiment: Quantification of tyrosine hydroxylase (TH) positive cells (DAN); type: cell-based; conditions: 1, 5 or 10 μM
Experimental: as §1, with “3). […] (2) In order to compare the amounts of dopaminergic neurons (DAN) differentiated by the same method as in (1), the quantification of tyrosine hydroxylase (TH) positive cells, which is a specific marker of mature DAN, was performed (FIG. 6).” for “3).”

[9] = tested on: iPS cell-derived nerve cells (DAN); experiment: Intracellular NAD+ concentration by colorimetric method; type: cell-based, human; conditions: cells recovered after 10 days
Experimental: (3) The differentiation induction of DAN was performed using the same method as in (2), the cells were recovered after 10 days, and the intracellular NAD^+ concentration was measured using a colorimetric method (FIG. 7).

SMILES | acceleration of cell maturation [1] | aging-specific nuclear membrane abnormalities (SHSY5 cells; SHSY5 cells, Lamin B1 / Lamin A/C staining) | Lamin B1 (LMNB1) mRNA (SHSY5 cells; qPCR, n=4, p<0.01) | aging marker p16 mRNA (SHSY5 cells; qPCR, n=4, p<0.01) | amount of Nestin-positive cells [2] | cell loss of DAN compared to normal control cells ([3]; day 7 of culture) | cell loss of DAN compared to normal control cells ([3]; day 10 of culture) | culture time until Parkinson's disease phenotype is detected ([3]; nerve cells derived from iPS cells of a Parkinson's disease patient) [days] | γH2AX accumulation (DNA damage) (DAN from human iPS cells [4]) | structure of Lamin B1 (nuclear membrane) (DAN from human iPS cells [5]) | SA-Gal positive cells [6] | SA-Gal intensity ([6]; n=6, p<0.01) | fluorescence intensity of GFP-Synapsin ([1]; 10 μM, 17 days culture, compound library screening) | aging-specific nuclear membrane abnormality (Lamin B1) ([7]; fibroblasts derived from a young donor) | proportion of cells showing normal nuclear membrane structure ([7]; fibroblasts derived from a young donor, n=6, p<0.01) | Lamin B1 (nuclear membrane marker) ([7]; young donor-derived fibroblasts, added for 72 hours) | TH positive cells (DAN) ([8]; culture continued to day 10) | TH positive cells (DAN) ([8]; day 7 of culture) | intracellular NAD+ concentration [9]
O=c1cc(-c2cccc3c2Sc2ccccc2S3)oc(N2CCOCC2)c1 [KU55933] | only in the cells to which KU60019 was added | – | – | – | – | – | – | – | – | – | – | – | – | – | – | – | – | – | –
C[C@@H]1CN(CC(=O)Nc2ccc3c(c2)Cc2cccc(-c4cc(=O)cc(N5CCOCC5)o4)c2S3)C[C@H](C)O1 [KU-60019] | acceleration of cell maturation was observed | aging-specific nuclear membrane abnormalities were caused | decrease | increase; also recorded: significantly elevated | decreased depending on the concentration | no significant increase in cell loss | lost cells significantly increased | 7 | accumulated in the nucleus | degraded | increased to a level equivalent to that in fibroblasts derived from an old donor | increased similarly | highest fluorescence intensity among the compounds selected | reduction of Lamin B1 | reduced | a decrease in Lamin B1 was found | this difference disappeared | increased depending on the concentration | decreased depending on the concentration
O=c1cc(N2CCOCC2)oc2c(-c3cccc4c3sc3ccccc34)cccc12 [NU7441] | only in the cells to which KU60019 was added | – | – | – | – | – | – | – | – | – | – | – | – | – | – | – | – | – | –
